Assay results from patent US20250129070A1, “BIFUNCTIONAL ANDROGEN RECEPTOR COMPOUNDS” (priority 2023, published 2025).

Experiments:
AR / CBP ternary complex = experiment: Ternary complex formation assay (sandwich ELISA, AR capture / CBP detection) in VCaP cell lysates; type: cell-based; details: 1.5 hours treatment, sandwich ELISA (AR capture, CBP or p300 detection)
Outline: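 VCaP cells (50K/well, 5% charcoal-stripped FBS, ≥3 days) treated with bifunctional compound for 1.5 h, then lysed 30 min at 4 °C. AR captured on anti-AR (AR 441) plates; bound CBP or p300 detected by rabbit mAb plus HRP secondary. QuantaRed chemifluorescence read at ex 570/em 585, immediately and at 5 and 15 min.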

VCaP cells = experiment: VCaP growth inhibition assay; type: cell-based; details: 30 pM R1881, 9 days, CTG
Outline: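 VCaP cells in phenol red-free DMEM/5% CSS, pre-incubated 72 h, then stimulated with R1881 (final 30 pM) and treated with 1:5 serial dilutions (final 100 nM to 10 fM) for 9 days at 37 °C. Viability by CellTiter-Glo luminescence; IC50 from 4-parameter logistic fit of RLU vs concentration.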

Row | SMILES | EC50 (AR / CBP ternary complex) [nM] | IC50 (VCaP cells) [nM]
1 | CN1C(=O)CCc2cc(-c3cccc4cc(-c5ccc(CCC6CCN(c7ncc(C(=O)NC8C(C)(C)C(Oc9ccc(C#N)c(Cl)c9)C8(C)C)cn7)CC6)nc5)ncc34)ccc21 (stereo not drawn) [Compound 238, N-[3-(3-chloro-4-cyano-phenoxy)-2,2,4,4-tetramethyl-cyclobutyl]-2-[4-[2-[5-[8-(1-methyl-2-oxo-3,4-dihydroquinolin-6-yl)-3-isoquinolyl]-2-pyridyl]ethyl]-1-piperidyl]pyrimidine-5-carboxamide] | 10 to 100 | > 100
2 | CC(=O)N1CCc2c(c(N3CCCc4cc(-c5cnn(C)c5)c(C(F)F)cc43)nn2CCCOc2ncc(C(=O)NC3C(C)(C)C(Oc4ccc(C#N)c(Cl)c4)C3(C)C)cn2)C1 (stereo not drawn) [Compound 43, 2-[3-[5-acetyl-3-[7-(difluoromethyl)-6-(1-methylpyrazol-4-yl)-3,4-dihydro-2H-quinolin-1-yl]-6,7-dihydro-4H-pyrazolo[4,3-c]pyridin-1-yl]propoxy]-N-[3-(3-chloro-4-cyano-phenoxy)-2,2,4,4-tetramethyl-cyclobutyl]pyrimidine-5-carboxamide] | > 100 | > 100
3 | CC(=O)N1CCc2c(c(N3CCCc4ccccc43)nn2C2CCN(C(=O)C3CCN(c4ncc(C(=O)NC5C(C)(C)C(Oc6ccc(C#N)c(Cl)c6)C5(C)C)cn4)CC3)CC2)C1 (stereo not drawn) [Compound 129, 2-[4-[4-[5-acetyl-3-(3,4-dihydro-2H-quinolin-1-yl)-6,7-dihydro-4H-pyrazolo[4,3-c]pyridin-1-yl]piperidine-1-carbonyl]-1-piperidyl]-N-[3-(3-chloro-4-cyano-phenoxy)-2,2,4,4-tetramethyl-cyclobutyl]pyrimidine-5-carboxamide] | < 1 | ≤ 0.1
4 | CC(=O)N1CCc2c(c(-c3cccc4cc(-c5cnn(CCC6CCN(c7ncc(C(=O)NC8C(C)(C)C(Oc9ccc(C#N)c(Cl)c9)C8(C)C)cn7)CC6)c5)ncc34)nn2C2CCOCC2)C1 (stereo not drawn) [Compound 139, 2-[4-[2-[4-[8-(5-acetyl-1-tetrahydropyran-4-yl-6,7-dihydro-4H-pyrazolo[4,3-c]pyridin-3-yl)-3-isoquinolyl]pyrazol-1-yl]ethyl]-1-piperidyl]-N-[3-(3-chloro-4-cyano-phenoxy)-2,2,4,4-tetramethyl-cyclobutyl]pyrimidine-5-carboxamide] | > 100 | ≤ 0.1
5 | CC(=O)N1CCc2c(c(N3CCCc4cc(-c5cnn(C)c5)c(C(F)F)cc43)nn2C2CC3(C2)CN(C(=O)C2CC4(C2)CN(c2ncc(C(=O)NC5C(C)(C)C(Oc6ccc(C#N)c(Cl)c6)C5(C)C)cn2)C4)C3)C1 (stereo not drawn) [Compound 217, 2-[6-[6-[5-acetyl-3-[7-(difluoromethyl)-6-(1-methylpyrazol-4-yl)-3,4-dihydro-2H-quinolin-1-yl]-6,7-dihydro-4H-pyrazolo[4,3-c]pyridin-1-yl]-2-azaspiro[3.3]heptane-2-carbonyl]-2-azaspiro[3.3]heptan-2-yl]-N-[3-(3-chloro-4-cyano-phenoxy)-2,2,4,4-tetramethyl-cyclobutyl]pyrimidine-5-carboxamide] | < 1 | 0.1 to 1
6 | COc1cc(OC2C(C)(C)C(NC(=O)c3ccc(N4CCN(CCc5ccc(-c6cc7c(cn6)N(c6nn(C8CCOCC8)c8c6CN(C(C)=O)CC8)CCC7)cn5)CC4)cc3)C2(C)C)ccc1C#N (stereo not drawn) [Compound 251, 4-[4-[2-[5-[1-(5-acetyl-1-tetrahydropyran-4-yl-6,7-dihydro-4H-pyrazolo[4,3-c]pyridin-3-yl)-3,4-dihydro-2H-1,7-naphthyridin-6-yl]-2-pyridyl]ethyl]piperazin-1-yl]-N-[3-(4-cyano-3-methoxy-phenoxy)-2,2,4,4-tetramethyl-cyclobutyl]benzamide] | < 1 | 0.1 to 1
7 | COc1cc(OC2C(C)(C)C(NC(=O)c3ccc(OC4CC5(CCC(N6CCC(n7nc(N8CCCc9cc(-c%10cnn(C)c%10)c(C(F)F)cc98)c8c7CCN(C(C)=O)C8)CC6)CC5)C4)cc3)C2(C)C)ccc1C#N (stereo not drawn) [Compound 384, 4-[7-[4-[5-acetyl-3-[7-(difluoromethyl)-6-(1-methylpyrazol-4-yl)-3,4-dihydro-2H-quinolin-1-yl]-6,7-dihydro-4H-pyrazolo[4,3-c]pyridin-1-yl]-1-piperidyl]spiro[3.5]nonan-2-yl] oxy-N-[3-(4-cyano-3-methoxy-phenoxy)-2,2,4,4-tetramethyl-cyclobutyl]benzamide] | < 1 | ≤ 0.1
8 | CC(=O)N1CCc2c(c(N3CCCc4cc(-c5cnn(C)c5)c(C(F)F)cc43)nn2C2CCN(CC#CCCc3ncc(C(=O)NC4C(C)(C)C(Oc5ccc(C#N)c(Cl)c5)C4(C)C)cn3)CC2)C1 (stereo not drawn) [Compound 18, 2-[5-[4-[5-acetyl-3-[7-(difluoromethyl)-6-(1-methylpyrazol-4-yl)-3,4-dihydro-2H-quinolin-1-yl]-6,7-dihydro-4H-pyrazolo[4,3-c]pyridin-1-yl]-1-piperidyl]pent-3-ynyl]-N-[3-(3-chloro-4-cyano-phenoxy)-2,2,4,4-tetramethyl-cyclobutyl]pyrimidine-5-carboxamide] | < 1 | 0.1 to 1
9 | CC(=O)N1CCc2c(c(N3CCCc4cc(-c5cnn(C)c5)c(C(F)F)cc43)nn2C2CCN(C3CN(c4ncc(C(=O)NC5C(C)(C)C(Oc6ccc(C#N)c(Cl)c6)C5(C)C)cn4)C3)CC2)C1 (stereo not drawn) [Compound 333, 2-[3-[4-[5-acetyl-3-[7-(difluoromethyl)-6-(1-methylpyrazol-4-yl)-3,4-dihydro-2H-quinolin-1-yl]-6,7-dihydro-4H-pyrazolo[4,3-c]pyridin-1-yl]-1-piperidyl]azetidin-1-yl]-N-[3-(3-chloro-4-cyano-phenoxy)-2,2,4,4-tetramethyl-cyclobutyl]pyrimidine-5-carboxamide] | > 100 | ≤ 0.1

The remaining lines, values ahead:

Row | EC50 (AR / CBP ternary complex) [nM] | IC50 (VCaP cells) [nM] | SMILES
10 | < 1 | ≤ 0.1 | COc1cc(OCC(C)(C)[C@H](NC(=O)c2ccc(N3CCN(CC4CCC(n5nc(N6CCCc7cc(-c8cnn(C)c8)c(C(F)F)cc76)c6c5CCN(C(C)=O)C6)CC4)CC3)cc2)C(C)C)ccc1C#N (stereo partly drawn) [Compound 317, 4-[4-[[4-[5-acetyl-3-[7-(difluoromethyl)-6-(1-methylpyrazol-4-yl)-3,4-dihydro-2H-quinolin-1-yl]-6,7-dihydro-4H-pyrazolo[4,3-c]pyridin-1-yl]cyclohexyl]methyl]piperazin-1-yl]-N-[(1R)-3-(4-cyano-3-methoxy-phenoxy)-1-isopropyl-2,2-dimethyl-propyl]benzamide]
11 | < 1 | ≤ 0.1 | CC(=O)N1CCc2c(c(N3CCCc4cc(-c5cnn(C)c5)c(C(F)F)cc43)nn2C2CCN(CC3C(C)CN(c4ncc(C(=O)NC5C(C)(C)C(Oc6ccc(C#N)c(C)c6)C5(C)C)cn4)CC3C)CC2)C1 (stereo not drawn) [Compound 462, 2-[4-[[4-[5-acetyl-3-[7-(difluoromethyl)-6-(1-methylpyrazol-4-yl)-3,4-dihydro-2H-quinolin-1-yl]-6,7-dihydro-4H-pyrazolo[4,3-c]pyridin-1-yl]-1-piperidyl]methyl]-3,5-dimethyl-1-piperidyl]-N-[3-(4-cyano-3-methyl-phenoxy)-2,2,4,4-tetramethyl-cyclobutyl]pyrimidine-5-carboxamide]
12 | < 1 | ≤ 0.1 | CC(=O)N1CCc2c(c(N3CCCc4cc(-c5cnn(C)c5)c(C(F)F)cc43)nn2C2CCN(CC3C(C)CN(c4ncc(C(=O)NC5C(C)(C)C(Oc6ccc(C#N)c(C)c6C)C5(C)C)cn4)CC3C)CC2)C1 (stereo not drawn) [Compound 461, 2-[4-[[4-[5-acetyl-3-[7-(difluoromethyl)-6-(1-methylpyrazol-4-yl)-3,4-dihydro-2H-quinolin-1-yl]-6,7-dihydro-4H-pyrazolo[4,3-c]pyridin-1-yl]-1-piperidyl]methyl]-3,5-dimethyl-1-piperidyl]-N-[3-(4-cyano-2,3-dimethyl-phenoxy)-2,2,4,4-tetramethyl-cyclobutyl]pyrimidine-5-carboxamide]
13 | < 1 | 0.1 to 1 | CC(=O)N1CCc2c(c(-c3cccc4cc(-c5cnn(CC6CCN(c7ncc(C(=O)NC8C(C)(C)C(Oc9ccc(C#N)c(Cl)c9)C8(C)C)cn7)CC6)c5)ncc34)nn2C)C1 (stereo not drawn) [Compound 215, 2-[4-[[4-[8-(5-acetyl-1-methyl-6,7-dihydro-4H-pyrazolo[4,3-c]pyridin-3-yl)-3-isoquinolyl]pyrazol-1-yl]methyl]-1-piperidyl]-N-[3-(3-chloro-4-cyano-phenoxy)-2,2,4,4-tetramethyl-cyclobutyl]pyrimidine-5-carboxamide]
14 | < 1 | ≤ 0.1 | COc1cc(OC2C(C)(C)C(NC(=O)c3ccc(N4CCN(C5CN(c6ccc(-c7cc8c(cn7)N(c7nn(C9CCOCC9)c9c7CN(C(C)=O)CC9)CCC8)cn6)C5)CC4)cc3)C2(C)C)ccc1C#N (stereo not drawn) [Compound 324, 4-[4-[1-[5-[1-(5-acetyl-1-tetrahydropyran-4-yl-6,7-dihydro-4H-pyrazolo[4,3-c]pyridin-3-yl)-3,4-dihydro-2H-1,7-naphthyridin-6-yl]-2-pyridyl]azetidin-3-yl]piperazin-1-yl]-N-[3-(4-cyano-3-methoxy-phenoxy)-2,2,4,4-tetramethyl-cyclobutyl]benzamide]
15 | < 1 | > 100 | CC(=O)N1CCc2c(c(Nc3ccc(-c4cnn(C)c4)cc3F)nn2C2CCN(C(=O)COC3CCN(c4ncc(C(=O)NC5C(C)(C)C(Oc6ccc(C#N)c(Cl)c6)C5(C)C)cn4)CC3)CC2)C1 (stereo not drawn) [Compound 177, 2-[4-[2-[4-[5-acetyl-3-[2-fluoro-4-(1-methylpyrazol-4-yl)anilino]-6,7-dihydro-4H-pyrazolo[4,3-c]pyridin-1-yl]-1-piperidyl]-2-oxo-ethoxy]-1-piperidyl]-N-[3-(3-chloro-4-cyano-phenoxy)-2,2,4,4-tetramethyl-cyclobutyl]pyrimidine-5-carboxamide]
